For 42 compounds, IC50 and melting point results are on record in US8071593B2, “2-oxo-3-benzylbenzoxazol-2-one derivatives and related compounds as Met kinase inhibitors for the treatment of tumours” (Merck Patent Gesellschaft mit beschrankter Haftung, priority 2007, dated 2011).

Structures can show the parent of a compound that is named as a salt.

The target of one data set is Met kinase (Homo sapiens, UniProt P08581). As to the kind of experiment: Met kinase inhibition (cell assay). The class given is cell-based.
Chain of Met kinase (P08581 25-1390): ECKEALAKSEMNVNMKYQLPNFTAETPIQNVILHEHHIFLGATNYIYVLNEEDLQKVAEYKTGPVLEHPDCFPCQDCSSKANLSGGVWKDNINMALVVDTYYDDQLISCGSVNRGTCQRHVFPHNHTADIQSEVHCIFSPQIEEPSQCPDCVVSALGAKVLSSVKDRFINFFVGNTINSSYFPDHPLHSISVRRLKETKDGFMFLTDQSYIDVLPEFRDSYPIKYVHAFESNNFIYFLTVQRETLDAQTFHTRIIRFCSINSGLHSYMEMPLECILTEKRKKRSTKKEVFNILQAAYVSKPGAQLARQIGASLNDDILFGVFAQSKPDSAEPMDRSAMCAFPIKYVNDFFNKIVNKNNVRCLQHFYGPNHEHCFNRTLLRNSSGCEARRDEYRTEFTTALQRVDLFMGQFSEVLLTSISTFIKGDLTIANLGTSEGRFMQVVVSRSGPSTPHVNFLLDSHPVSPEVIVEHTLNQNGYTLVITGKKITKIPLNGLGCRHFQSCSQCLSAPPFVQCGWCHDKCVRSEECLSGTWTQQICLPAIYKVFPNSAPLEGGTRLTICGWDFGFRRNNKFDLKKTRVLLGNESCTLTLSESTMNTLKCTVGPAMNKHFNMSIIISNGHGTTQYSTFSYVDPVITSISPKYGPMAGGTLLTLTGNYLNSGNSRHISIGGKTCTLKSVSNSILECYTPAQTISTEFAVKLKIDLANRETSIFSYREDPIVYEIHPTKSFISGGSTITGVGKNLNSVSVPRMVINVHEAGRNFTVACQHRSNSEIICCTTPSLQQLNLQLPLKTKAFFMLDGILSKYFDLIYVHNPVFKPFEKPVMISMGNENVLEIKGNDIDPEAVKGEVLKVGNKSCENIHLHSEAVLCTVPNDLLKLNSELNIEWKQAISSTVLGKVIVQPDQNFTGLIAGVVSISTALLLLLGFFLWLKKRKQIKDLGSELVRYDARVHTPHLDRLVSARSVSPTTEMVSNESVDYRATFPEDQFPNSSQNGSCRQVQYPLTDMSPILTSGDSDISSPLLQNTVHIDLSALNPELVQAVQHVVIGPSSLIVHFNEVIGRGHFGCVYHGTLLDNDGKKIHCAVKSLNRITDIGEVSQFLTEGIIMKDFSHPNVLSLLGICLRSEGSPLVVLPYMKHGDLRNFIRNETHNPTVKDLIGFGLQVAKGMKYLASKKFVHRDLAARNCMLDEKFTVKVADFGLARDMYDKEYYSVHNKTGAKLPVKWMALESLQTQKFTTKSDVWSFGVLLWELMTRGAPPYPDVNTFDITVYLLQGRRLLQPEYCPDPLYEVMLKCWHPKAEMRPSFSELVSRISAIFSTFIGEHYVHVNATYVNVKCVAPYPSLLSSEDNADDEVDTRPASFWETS
For the compound `COc1ccc2oc(=O)n(Cc3cccc(NC(=O)OCCCN4CCN(C)CC4)c3)c2c1` [Compound A1, 3-(4-methylpiperazin-1-yl)propyl [3-(5-methoxy-2-oxobenzooxazol-3-ylmethyl)phenyl]carbamate], the IC50 lay within 10 to 1000 nM.

Consider `CN1CCN(CCCOC(=O)Nc2cccc(Cn3c(=O)oc4ccc(Cl)cc43)c2)CC1` [Compound A2], for which the IC50 was 10 to 1000 nM.

As to `CN1CCN(CCCOC(=O)Nc2cccc(Cn3c(=O)oc4ccc(C(=O)N(C)C)cc43)c2)CC1` [Compound A3, 3-(4-Methylpiperazin-1-yl)propyl [3-(5-dimethylcarbamoyl-2-oxobenzoxazol-3-ylmethyl)phenyl]carbamate], the IC50 lay in the range of 10 to 1000 nM.

`CN(C)C(=O)c1ccc2oc(=O)n(Cc3cccc(NC(=O)OCCCN4CCNCC4)c3)c2c1` [Compound A4, 3-Piperazin-1-ylpropyl [3-(5-dimethylcarbamoyl-2-oxobenzoxazol-3-ylmethyl)phenyl]carbamate]: the concentration for half-maximal inhibition (IC50) lay within 10 to 1000 nM.

Regarding `CCCNC(=O)c1ccc2oc(=O)n(Cc3cccc(NC(=O)OCCCN4CCN(C)CC4)c3)c2c1` [Compound A5, 3-(4-Methylpiperazin-1-yl)propyl [3-(5-propylcarbamoyl-2-oxobenzoxazol-3-ylmethyl)phenyl]carbamate], the half-maximal inhibitory concentration (IC50) was 10 to 1000 nM.

Turning to `CN1CCN(CCCOC(=O)Nc2cccc(Cn3c(=O)oc4cc(Cl)ccc43)c2)CC1` [Compound A6, 3-(4-Methylpiperazin-1-yl)propyl [3-(6-chloro-2-oxobenzoxazol-3-ylmethyl)phenyl]carbamate], the IC50 fell in the range of 10 to 1000 nM.

`Cc1ccc2oc(=O)n(Cc3cccc(NC(=O)OCCCN4CCN(C)CC4)c3)c2c1` [Compound A7, 3-(4-Methylpiperazin-1-yl)propyl [3-(5-methyl-2-oxobenzoxazol-3-ylmethyl)phenyl]carbamate]: the IC50 lay within 10 to 1000 nM.

`CC(=O)c1ccc2oc(=O)n(Cc3cccc(NC(=O)OCCCN4CCN(C)CC4)c3)c2c1` [Compound A8, 3-(4-Methylpiperazin-1-yl)propyl [3-(5-acetyl-2-oxobenzoxazol-3-ylmethyl)phenyl]carbamate] had an IC50 of 10 to 1000 nM.

Turning to `CC(O)c1ccc2c(c1)oc(=O)n2Cc1cccc(NC(=O)OCCCN2CCN(C)CC2)c1` (stereo not drawn) [Compound A9, 3-(4-methylpiperazin-1-yl)propyl {3-[6-(1-hydroxyethyl)-2-oxobenzoxazol-3-ylmethyl]phenyl}carbamate], the IC50 fell in the range of 10 to 1000 nM.

Regarding `CCCNC(=O)c1ccc2oc(=O)n(Cc3cccc(NC(=O)OCCCN4CCNCC4)c3)c2c1` [Compound A10, 3-Piperazin-1-ylpropyl [3-(5-propylcarbamoyl-2-oxobenzoxazol-3-ylmethyl)phenyl]carbamate], the IC50 lay within 10 to 1000 nM.

Regarding `CN(C)CCCOC(=O)Nc1cccc(Cn2c(=O)oc3cccnc32)c1` [Compound A11, 3-Dimethylaminopropyl [3-(2-oxooxazolo[4,5-b]pyridin-3-ylmethyl)phenyl]carbamate], the IC50 fell in the range of 10 to 1000 nM.

The compound `CN(C)CCCOC(=O)Nc1cccc(Cn2c(=O)oc3ccc(C(=O)N(C)C)cc32)c1` [Compound A12, 3-Dimethylaminopropyl [3-(5-dimethylcarbamoyl-2-oxobenzoxazol-3-ylmethyl)phenyl]carbamate] showed a half-maximal inhibitory concentration (IC50) of 10 to 1000 nM.

Take `CCCNC(=O)c1ccc2oc(=O)n(Cc3cccc(NC(=O)OCCCN(C)C)c3)c2c1` [Compound A13, 3-Dimethylaminopropyl [3-(5-propylcarbamoyl-2-oxobenzoxazol-3-ylmethyl)phenyl]carbamate]: the IC50 lay in the range of 10 to 1000 nM.

As for `COC(=O)c1ccc2c(c1)oc(=O)n2Cc1cccc(NC(=O)OCCCN(C)C)c1` [Compound A14, 3-Dimethylaminopropyl [3-(6-methoxycarbonyl-2-oxobenzoxazol-3-ylmethyl)phenyl]carbamate], the IC50 was 10 to 1000 nM.

For `COC(=O)c1ccc2oc(=O)n(Cc3cccc(NC(=O)OCCCN(C)C)c3)c2c1` [Compound A15, 3-Dimethylaminopropyl [3-(5-methoxycarbonyl-2-oxobenzoxazol-3-ylmethyl)phenyl]carbamate], the IC50 fell in the range of 10 to 1000 nM.

`CN(C)CCCOC(=O)Nc1cccc(Cn2c(=O)oc3ccccc32)c1` [Compound A16, 3-Dimethylaminopropyl [3-(2-oxobenzoxazol-3-ylmethyl)phenyl]carbamate] came in with an IC50 of 10 to 1000 nM.

For `CN1CCN(CCOC(=O)Nc2cccc(Cn3c(=O)oc4ccccc43)c2)CC1` [Compound A17, 2-(4-Methylpiperazin-1-yl)ethyl [3-(2-oxobenzoxazol-3-ylmethyl)phenyl]carbamate], the IC50 lay within 10 to 1000 nM.

In turn, `CN1CCN(CCCOC(=O)Nc2cccc(Cn3c(=O)oc4ccccc43)c2)CC1` [Compound A18, 3-(4-Methylpiperazin-1-yl)propyl [3-(2-oxobenzoxazol-3-ylmethyl)phenyl]carbamate] displayed an IC50 of 10 to 1000 nM.

For the compound `CN1CCN(CCCOC(=O)Nc2cccc(Cn3c(=O)oc4cc(F)c(F)cc43)c2)CC1` [Compound A19, 3-(4-Methylpiperazin-1-yl)propyl [3-(5,6-difluoro-2-oxobenzoxazol-3-ylmethyl)phenyl]carbamate], the half-maximal inhibitory concentration (IC50) is 10 to 1000 nM.

In turn, `COc1ccc2c(c1)oc(=O)n2Cc1cccc(NC(=O)OCCCN2CCN(C)CC2)c1` [Compound A20, 3-(4-Methylpiperazin-1-yl)propyl [3-(6-methoxy-2-oxobenzoxazol-3-ylmethyl)phenyl]carbamate] came in with a half-maximal inhibitory concentration (IC50) of 10 to 1000 nM.

For `Cc1ccc2c(c1)oc(=O)n2Cc1cccc(NC(=O)OCCCN2CCN(C)CC2)c1` [Compound A21, 3-(4-Methylpiperazin-1-yl)propyl [3-(6-methyl-2-oxobenzoxazol-3-ylmethyl)phenyl]carbamate], the IC50 fell in the range of 10 to 1000 nM.

The compound `CC(=O)c1ccc2c(c1)oc(=O)n2Cc1cccc(NC(=O)OCCCN2CCN(C)CC2)c1` [Compound A22, 3-(4-Methylpiperazin-1-yl)propyl [3-(6-acetyl-2-oxobenzoxazol-3-ylmethyl)phenyl]carbamate] gave an IC50 of 10 to 1000 nM.

`CCOC(=O)Nc1cccc(Cn2c(=O)oc3ccc(C(=O)NCCN(C)C)cc32)c1` [Compound A30, Ethyl {3-[5-(2-dimethylaminoethylcarbamoyl)-2-oxobenzoxazol-3-ylmethyl]phenyl}carbamate] had a 50% inhibitory concentration (IC50) of 10 to 1000 nM.

Turning to `CCOC(=O)Nc1cccc(Cn2c(=O)oc3ccc(C(=O)NCCCN(C)C)cc32)c1` [Compound A31, Ethyl {3-[5-(3-dimethylaminopropylcarbamoyl)-2-oxobenzoxazol-3-ylmethyl]phenyl}carbamate], the IC50 was 10 to 1000 nM.

`CCOC(=O)Nc1cccc(C(C)n2c(=O)oc3ccc(C(=O)NCCCCN(C)C)cc32)c1` (stereo not drawn) [Compound A32, Ethyl (3-{1-[5-(4-dimethylaminobutylcarbamoy1)-2-oxobenzoxazol-3-yl]ethyl}phenyl)carbamate] registered an IC50 of 10 to 1000 nM.

Compound `CCOC(=O)Nc1cccc(C(C)n2c(=O)oc3ccc(C(=O)NCCN(C)C)cc32)c1` (stereo not drawn) [Compound A33, Ethyl (3-{1-[5-(2-dimethylaminoethylcarbamoy1)-2-oxobenzoxazol-3-yl]ethyl}phenyl)carbamate] had an IC50 of 10 to 1000 nM.

The compound `CN(C)CCCCNC(=O)c1ccc2oc(=O)n(Cc3ccc4[nH]c(=O)[nH]c4c3)c2c1` [Compound A34, N-(4-Dimethylaminobutyl)-2-oxo-3-(2-oxo-2,3-dihydro-1H-benzimidazol-5-ylmethyl)-2,3-dihydrobenzoxazole-5-carboxamide] gave an IC50 of 10 to 1000 nM.

`CN(C)CCNC(=O)c1ccc2oc(=O)n(Cc3ccc4[nH]c(=O)[nH]c4c3)c2c1` [Compound A35, N-(2-dimethylaminoethyl)-2-oxo-3-(2-oxo-2,3-dihydro-1H-benzoimidazol-5-ylmethyl)-2,3-dihydrobenzoxazole-5-carboxamide]: the concentration for half-maximal inhibition (IC50) was in the range of 10 to 1000 nM.

Compound `CCOC(=O)Nc1cccc(C(C)n2c(=O)oc3ccc(C(=O)NCCCN(C)C)cc32)c1` (stereo not drawn) [Compound A36, Ethyl (3-{1-[5-(3-dimethylaminopropylcarbamoy1)-2-oxobenzoxazol-3-yl]ethyl}phenyl)carbamate] showed an IC50 of 10 to 1000 nM.

`CCOC(=O)Nc1cccc(Cn2c(=O)oc3cc(C(=O)OC)ccc32)c1` [Compound A37, Methyl 3-(3-ethoxycarbonylaminobenzyl)-2-oxo-2,3-dihydrobenzoxazole-6-carboxylate] displayed an IC50 of 10 to 1000 nM.

On to `CN(C)CCCOc1cnc(-c2cccc(Cn3c(=O)oc4ccc(C#N)cc43)c2)nc1` [Compound A66], for which the half-maximal inhibitory concentration (IC50) lay in the range of 10 to 1000 nM.

In turn, `CC(=O)c1ccc2oc(=O)n(Cc3cccc(-c4ncc(OCCCN(C)C)cn4)c3)c2c1` [Compound A67] returned a concentration for half-maximal inhibition (IC50) of 10 to 1000 nM.

As to `CN(C)CCCOc1cnc(-c2cccc(Cn3c(=O)oc4cc([N+](=O)[O-])ccc43)c2)nc1` [Compound A76], the half-inhibitory concentration (IC50) lay within 10 to 1000 nM.

`Cc1ccc2oc(=O)n(Cc3cccc(-c4ncc(OCCN5CCOCC5)cn4)c3)c2n1` [Compound A79] showed an IC50 of 10 to 1000 nM.

In the case of `CCS(=O)(=O)c1ccc2oc(=O)n(Cc3cccc(-c4ncc(OCCCN(C)C)cn4)c3)c2c1` [Compound A82], the IC50 was in the range of 10 to 1000 nM.

On to `Cc1ccc2oc(=O)n(Cc3cccc(-c4ncc(OCC5CCNCC5)cn4)c3)c2n1` [Compound A87], for which the IC50 lay in the range of 10 to 1000 nM.

For `CN(C)CCCOc1cnc(-c2cccc(Cn3c(=O)oc4cc(S(=O)(=O)CCO)ccc43)c2)nc1` [Compound A92], the half-inhibitory concentration (IC50) lay in the range of 1000 to 10000 nM.

Compound `CN(C)CCCOc1cnc(-c2cccc(Cn3c(=O)oc4cc(F)c(F)cc43)c2)nc1` [Compound A93] yielded a concentration for half-maximal inhibition (IC50) of 1000 to 10000 nM.

In turn, `CN(C)CCCOc1cnc(-c2cccc(Cn3c(=O)oc4ncccc43)c2)nc1` [Compound A95] registered a concentration for half-maximal inhibition (IC50) of 1000 to 10000 nM.

Turning to `CN(C)CCCOc1cnc(-c2cccc(Cn3c(=O)oc4cc5ccccc5cc43)c2)nc1` [Compound A96], the IC50 fell in the range of 10 to 1000 nM.

On to `O=c1oc2c3ncccc3ccc2n1Cc1cccc(-c2ncc(OCCN3CCOCC3)cn2)c1` [Compound A103], for which the half-maximal inhibitory concentration (IC50) is 1000 to 10000 nM.

Test system in another data set: not given
Test: not given
For the compound `CC(c1cccc(NC(=O)OCCN2CCN(C)CC2)c1)n1c(=O)oc2cc(F)c(F)cc21` (stereo not drawn) (as salt: hydrochloride) [Compound A27, 2-(4-methylpiperazin-1-yl)ethyl {3-[1-(5,6-difluoro-2-oxobenzoxazol-3-yl)ethyl]phenyl}carbamate], the melting point was 236 to 238 °C (dec.).
